For this data set the following is noted: no method given; for absorption compared with ferrous sulfate: comparison with ferrous sulfate.

Regarding `NCC(=O)[O-].NCC(=O)[O-].[Fe+2]` [Ferrous bisglycinate], the “absorption compared with ferrous sulfate” value was “better than ferrous sulfate”. Moreover, for the setting “comparison with ferric trisglycinate”, the “absorption relative to ferric trisglycinate (absorbed x times better)” value turned out to be 2.3 times.

Regarding `NCC(=O)O.NCC(=O)O.NCC(=O)O.[Fe]` [ferric trisglycinate], the “absorption compared with ferrous sulfate” value was “better than ferrous sulfate”.
